# Reference: patent publication US8299048B2, “Hexahydrocyclopentyl[f]indazole sulfonamides and derivatives thereof as selective glucocorticoid receptor modulators” (Merck Sharp & Dohme Corp., priority 2008, dated 2012)
# Legend:
# [1] = molecular target: T1, human GR (Homo sapiens, UniProt P04150); assay: Transrepression Assay (GITAR), TNFα-β-lactamase reporter in U937 cells; assay type: cell-based; design: U937 cells contain an endogenous glucocorticoid receptor (GR); endogenous in cells; host or cells: U937 cells stably transfected with the TNF-alpha promoter/beta-lactamase reporter; settings: for GITAR > GRAMM % SEP: GITAR Emax minus GRAMMER Emax; for EC50: U937 cells, inflection point, read-out: Transrepression U937 Cells GITAR IP
# T1 sequence (P04150 1-777): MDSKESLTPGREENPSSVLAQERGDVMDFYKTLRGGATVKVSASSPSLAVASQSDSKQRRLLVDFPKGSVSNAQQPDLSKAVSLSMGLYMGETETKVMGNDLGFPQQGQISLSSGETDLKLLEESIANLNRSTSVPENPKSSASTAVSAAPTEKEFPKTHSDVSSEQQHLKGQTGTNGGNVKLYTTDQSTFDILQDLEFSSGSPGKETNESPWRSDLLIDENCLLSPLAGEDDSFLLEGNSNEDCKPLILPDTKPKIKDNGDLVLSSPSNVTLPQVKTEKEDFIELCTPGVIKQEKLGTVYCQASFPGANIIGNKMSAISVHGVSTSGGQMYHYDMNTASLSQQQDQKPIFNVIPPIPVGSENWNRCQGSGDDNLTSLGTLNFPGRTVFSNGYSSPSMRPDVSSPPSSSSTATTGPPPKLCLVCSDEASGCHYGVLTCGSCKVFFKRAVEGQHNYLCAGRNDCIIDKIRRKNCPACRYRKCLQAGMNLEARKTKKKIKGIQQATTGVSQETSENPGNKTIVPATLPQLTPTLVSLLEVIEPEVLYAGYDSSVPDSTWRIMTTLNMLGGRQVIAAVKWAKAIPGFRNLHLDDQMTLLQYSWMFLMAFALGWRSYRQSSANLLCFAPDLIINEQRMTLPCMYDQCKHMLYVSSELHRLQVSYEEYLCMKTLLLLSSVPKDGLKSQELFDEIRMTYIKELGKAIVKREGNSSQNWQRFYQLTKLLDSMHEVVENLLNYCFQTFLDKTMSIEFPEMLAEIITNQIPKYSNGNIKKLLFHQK
# Outline: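 Repression normalised to 100 nM dexamethasone (100%), measured with CCF2-AM β-lactamase substrate after 70–90 min at room temperature. Stably transfected U937 cells were exposed to compound 30–45 min, then to PMA (5 ng/ml final) plus LPS (100 ng/ml final) overnight (~18 hr), 37° C.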
# [2] = molecular target: T1, human GR; assay: Trans-Activation Modulation of Glucocorticoid Receptor (GRAMMER), MMTV-LUC reporter, agonist mode; assay type: cell-based; design: endogenous in cells; settings: for Emax: A549, A549 cells, maximum activity, read-out: Transactivation A549 Cells GRAMMER Emax; for EC50: A549 cells, inflection point, read-out: Transactivation A549 Cells GRAMMER IP
# Outline: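 Readout is luciferase from a modified MMTV LTR promoter after 24 h compound exposure alongside 10 nM dexamethasone (100% activity reference), DMSO ≤1%.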
# [3] = U-937, U937 cells, maximum activity, read-out: Transrepression U937 Cells GITAR Emax
# [4] = U-937, activity repressed by 100 nM dexamethasone alone set as 100%, read-out: maximal activity in the transrepression (GITAR) assay
SMILES,GITAR > GRAMM % SEP [1],EC50 [1],"Emax [1, 3]","Emax [1, 4]",Emax [2],EC50 [2]
"C[C@]12Cc3cnn(-c4ccc(F)cc4)c3C=C1CC[C@@H]2CN(CC#N)S(=O)(=O)c1ccccc1C(F)(F)F [Example 54, N-(cyanomethyl)-N-{[(4αR,5S)-1-(4-fluorophenyl)-4α-methyl-1,4,4α,5,6,7-hexahydrocyclopenta[f]indazol-5-yl]methyl}-2-(trifluoromethyl)benzenesulfonamide]",23.1%,1100 nM,31.3%,> 5%,8.2%,1080 nM
Cn1nc(C(F)(F)F)cc1-c1ccc(S(=O)(=O)N(CC#N)C[C@H]2CCC3=Cc4c(cnn4-c4ccc(F)cc4)C[C@@]32C)s1 [Example 35],34.6%,777 nM,39.5%,> 5%,4.9%,443 nM
"C[C@]12Cc3cnn(-c4ccc(F)cc4)c3C=C1CC[C@@H]2CN(CCO)S(=O)(=O)c1ccc(C#N)cc1Cl [Example 60, 2-chloro-4-cyano-N-{[(4αR,5S)-1-(4-fluorophenyl)-4α-methyl-1,4,4α,5,6,7-hexahydrocyclopenta[f]indazol-5-yl]methyl}-N-(2-hydroxyethyl)benezenesulfonamide]",29.0%,813 nM,52%,> 5%,23%,777 nM
"C[C@]12Cc3cnn(-c4ccc(F)cc4)c3C=C1CC[C@@H]2CN(CC#N)S(=O)(=O)c1ccc(Oc2ccccn2)cc1 [Example 45, N-(cyanomethyl)-N-{[(4αR,5S)-1-(4-fluorophenyl)-4α-methyl-1,4,4α,5,6,7-hexahydrocyclopenta[f]indazol-5-yl]methyl}-4-(pyridin-2-yloxy)benzenesulfonamide]",1.3%,1390 nM,12.8%,> 5%,11.4%,2890 nM
"C[C@]12Cc3cnn(-c4ccc(F)cc4)c3C=C1CC[C@@H]2CNS(=O)(=O)Cc1cccnc1 [Example 169, N-{[(4αR,5S)-1-(4-fluorophenyl)-4α-methyl-1,4,4α,5,6,7-hexahydrocyclopenta[f]indazol-5-yl]methyl}-1-pyridin-3-ylmethanesulfonamide]",56.1%,3030 nM,68.5%,> 5%,12.4%,1660 nM
"C[C@]12Cc3cnn(-c4ccc(F)cc4)c3C=C1CC[C@@H]2CN(CCO)S(=O)(=O)c1ccc(F)c(Cl)c1 [Example 19, 3-chloro-4-fluoro-N-{[(4αR,5S)-1-(4-fluorophenyl)-4α-methyl-1,4,4α,5,6,7-hexahydrocyclopenta[f]indazol-5-yl]methyl}-N-(2-hydroxyethyl)benzenesulfonamide]",49.1%,1720 nM,69.8%,> 5%,20.6%,1190 nM
"Cc1ccccc1S(=O)(=O)N(CC#N)C[C@H]1CCC2=Cc3c(cnn3-c3ccc(F)cc3)C[C@@]21C [Example 49, N-(cyanomethyl)-N-{[(4αR,5S)-1-(4-fluorophenyl)-4α-methyl-1,4,4α,5,6,7-hexahydrocyclopenta[f]indazol-5-yl]methyl}-2-methylbenzenesulfonamide]",8.9%,922 nM,23%,> 5%,14.1%,955 nM

# The next lines start with the values.
GITAR > GRAMM % SEP [1],EC50 [1],"Emax [1, 3]","Emax [1, 4]",Emax [2],EC50 [2],SMILES
15.7%,189 nM,81%,> 5%,65.3%,152 nM,"COC(=O)c1ccccc1S(=O)(=O)N(CCc1ccccc1F)C[C@H]1CCC2=Cc3c(cnn3-c3ccc(F)cc3)C[C@@]21C [Example 189, methyl 2-[([2-(2-fluorophenyl)ethyl]{[(4αR,5S)-1-(4-fluorophenyl)-4α-methyl-1,4,4α,5,6,7-hexahydrocyclopenta[f]indazol-5-yl]methyl}amino)sulfonyl]benzoate]"
27.2%,565 nM,37.7%,> 5%,10.5%,845 nM,"C[C@]12Cc3cnn(-c4ccc(F)cc4)c3C=C1CC[C@@H]2CN(CC#N)S(=O)(=O)c1cc(Cl)c(Cl)s1 [Example 24, 4,5-dichloro-N-(cyanomethyl)-N-{[(4αR,5S)-1-(4-fluorophenyl)-4α-methyl-1,4,4α,5,6,7-hexahydrocyclopenta[f]indazol-5-yl]methyl}thiophene-2-sulfonamide]"
3.7%,387 nM,40.3%,> 5%,36.6%,552 nM,"C[C@]12Cc3cnn(-c4ccc(F)cc4)c3C=C1CC[C@@H]2CN(CCc1ccccn1)S(=O)(=O)Cc1ccccc1C(N)=O [Example 196, 2-({[{[(4αR,5S)-1-(4-fluorophenyl)-4α-methyl-1,4,4α,5,6,7-hexahydrocyclopenta[f]indazol-5-yl]methyl}(2-pyridin-2-ylethyl)amino]sulfonyl}methyl)benzamide]"
31.8%,718 nM,42.4%,> 5%,10.7%,398 nM,"COCCN(C[C@H]1CCC2=Cc3c(cnn3-c3ccc(F)cc3)C[C@@]21C)S(=O)(=O)c1cn(C)nc1C(F)(F)F [Example 172, N-{[(4αR,5S)-1-(4-fluorophenyl)-4α-methyl-1,4,4α,5,6,7-hexahydrocyclopenta[f]indazol-5-yl]methyl}-N-(2-methoxyethyl)-1-methyl-3-(trifluoromethyl)-1H-pyrazole-4-sulfonamide]"
31.6%,362 nM,91.9%,> 5%,60.3%,124 nM,"C[C@]12Cc3cnn(-c4ccc(F)cc4)c3C=C1CC[C@@H]2CN(CC#N)S(=O)(=O)c1cc(OCC(F)(F)F)ccc1OCC(F)(F)F [Example 41, N-(cyanomethyl)-N-{[(4αR,5S)-1-(4-fluorophenyl)-4α-methyl-1,4,4α,5,6,7-hexahydrocyclopenta[f]indazol-5-yl]methyl}-2,5-bis(2,2,2-trifluoroethoxy)benzenesulfonamide]"
11.8%,759 nM,87.7%,> 5%,76%,432 nM,"Cc1noc(C)c1S(=O)(=O)N(CC1CCCO1)C[C@H]1CCC2=Cc3c(cnn3-c3ccc(F)cc3)C[C@@]21C (stereo partly drawn) [Example 170, N-{[(4αR,5S)-1-(4-fluorophenyl)-4α-methyl-1,4,4α,5,6,7-hexahydrocyclopenta[f]indazol-5-yl]methyl}-3,5-dimethyl-N-(tetrahydrofuran-2-ylmethyl)isoxazole-4-sulfonamide]"
27.7%,697 nM,63.5%,> 5%,35.8%,509 nM,"COC(=O)c1ccccc1S(=O)(=O)N(C[C@H]1CCC2=Cc3c(cnn3-c3ccc(F)cc3)C[C@@]21C)C[C@@H](C)O [Example 186, methyl 2-({{[(4αR,5S)-1-(4-fluorophenyl)-4α-methyl-1,4,4α,5,6,7-hexahydrocyclopenta[f]indazol-5-yl]methyl}[(2R)-2-hydroxypropyl]amino}sulfonyl)benzoate]"
